Data on 12 molecules can be found in ChEMBL document CHEMBL3217750, “Small-molecule inhibitors of dimeric transcription factors: Antagonism of proteinprotein and proteinDNA interactions” (Medchemcomm, 2012).

For one experiment, the target named is Transcription factor Jun (Homo sapiens, UniProt P05412). Kind of experiment: Inhibition of AP-1 complex (unknown origin).
The species named for experiment [1] is Homo sapiens. Kind of experiment: Ratio of curcumin IC50 to compound IC50 for AP-1 complex (unknown origin).
The next experiment concerns the target Transcription factor AP1 (Homo sapiens, UniProt P01100+P05412). Put plainly: Inhibition of c-FOS/AP1 (unknown origin). It counts as protein-complex assay.
Experiment [2] addresses T1, Lymphoid enhancer-binding factor 1 (Homo sapiens, UniProt Q9UJU2). Kind of experiment: Inhibition of LEF-1-mediated gene transcription in HEK293 cells after 48 hrs by luciferase reporter gene assay. It counts as cell-based.
Experiment [3] deals with T1, Lymphoid enhancer-binding factor 1. Put plainly: Inhibition of LEF-1 (unknown origin) expressed in CEF assessed as inhibition of beta catenin interaction by electrophoretic mobility shift assay. For orientation: Mobility shift assays separate free from complexed probe on a gel.
In experiment [4] the target is T2, c-Myc/Max (Homo sapiens, UniProt P01106+P61244). Put plainly: Inhibition of c-Myc/Max (unknown origin) DNA-binding activity. It counts as protein-complex assay.
T2 sequence (P01106 whole entry): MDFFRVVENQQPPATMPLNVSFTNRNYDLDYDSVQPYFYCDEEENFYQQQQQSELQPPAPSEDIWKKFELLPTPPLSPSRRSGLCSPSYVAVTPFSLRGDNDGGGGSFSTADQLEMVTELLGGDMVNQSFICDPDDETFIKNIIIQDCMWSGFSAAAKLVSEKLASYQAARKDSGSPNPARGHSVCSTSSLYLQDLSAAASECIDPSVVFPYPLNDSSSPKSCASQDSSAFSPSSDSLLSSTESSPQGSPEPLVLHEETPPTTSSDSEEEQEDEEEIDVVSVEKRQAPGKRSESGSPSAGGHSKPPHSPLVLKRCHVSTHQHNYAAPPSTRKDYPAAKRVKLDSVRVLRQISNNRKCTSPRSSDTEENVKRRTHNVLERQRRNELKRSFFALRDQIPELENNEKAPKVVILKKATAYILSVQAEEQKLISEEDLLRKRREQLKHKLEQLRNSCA
T2 sequence (P61244 whole entry): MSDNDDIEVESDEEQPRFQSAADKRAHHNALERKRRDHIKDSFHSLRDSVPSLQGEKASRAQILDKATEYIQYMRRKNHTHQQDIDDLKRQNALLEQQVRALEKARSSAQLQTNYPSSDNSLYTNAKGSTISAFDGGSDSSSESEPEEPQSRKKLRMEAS
A further experiment concerns the target Protein max (Homo sapiens, UniProt P61244). Put plainly: Inhibition of dimerized Max (unknown origin) DNA-binding activity.
Experiment [5] is filed under the species Homo sapiens. Kind of experiment: Selectivity ratio of IC50 for dimerized Max (unknown origin) to IC50 for c-Myc/Max (unknown origin).
Experiment [6] has as its target T3, Myc proto-oncogene protein (Homo sapiens, UniProt P01106). Put plainly: Inhibition of c-MYC in human HL60 cells by chemiluminescence assay. It counts as cell-based, HL-60.
For experiment [7], the target named is T2, c-Myc/Max. Put plainly: Inhibition of c-Myc/Max (unknown origin). It counts as protein-complex assay.
The species named for experiment [8] is Homo sapiens. Put plainly: Selectivity ratio of IC50 for c-Myc/Max (unknown origin) to IC50 for AP-1 complex (unknown origin).
Experiment [9] addresses T3, Myc proto-oncogene protein. Kind of experiment: Binding affinity to c-MYC (353 to 437) (unknown origin) by fluorescence polarization assay. For orientation: Polarisation of emitted light reports the rotation of a fluorescent probe.
The next experiment concerns HL-60. Kind of experiment: Antiproliferative activity against human HL60 cells. It counts as functional, cell-based.
Experiment [10] addresses T2, c-Myc/Max. Kind of experiment: Inhibition of c-Myc/Max (unknown origin) DNA-binding activity preincubated for 1 hr followed by DNA addition measured after 15 mins by electrophoretic mobility shift assay. It counts as protein-complex assay.

For orientation: IC50 means the concentration at which inhibition is half-maximal.

SMILES strings stand for the structures. Bridge positions count the residues as written; N and C are the ends. Peptide text beside a SMILES is read from it.

T1 sequence (Q9UJU2 whole entry): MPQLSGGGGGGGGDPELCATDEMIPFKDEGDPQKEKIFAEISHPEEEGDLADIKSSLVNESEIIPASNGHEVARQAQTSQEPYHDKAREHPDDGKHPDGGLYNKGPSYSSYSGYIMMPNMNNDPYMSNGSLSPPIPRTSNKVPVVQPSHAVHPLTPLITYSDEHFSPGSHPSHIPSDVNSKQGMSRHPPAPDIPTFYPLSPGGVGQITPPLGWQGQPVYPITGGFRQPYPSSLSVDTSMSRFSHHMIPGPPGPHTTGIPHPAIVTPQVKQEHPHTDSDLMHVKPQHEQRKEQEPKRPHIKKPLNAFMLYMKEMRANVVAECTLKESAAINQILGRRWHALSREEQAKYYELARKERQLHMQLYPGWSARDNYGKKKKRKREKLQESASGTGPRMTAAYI
T3 sequence (P01106 whole entry): as the sequence (P01106 whole entry) above
Chain of Protein max (P61244 whole entry): as the sequence (P61244 whole entry) above
Chain of Transcription factor AP1 (P05412 whole entry): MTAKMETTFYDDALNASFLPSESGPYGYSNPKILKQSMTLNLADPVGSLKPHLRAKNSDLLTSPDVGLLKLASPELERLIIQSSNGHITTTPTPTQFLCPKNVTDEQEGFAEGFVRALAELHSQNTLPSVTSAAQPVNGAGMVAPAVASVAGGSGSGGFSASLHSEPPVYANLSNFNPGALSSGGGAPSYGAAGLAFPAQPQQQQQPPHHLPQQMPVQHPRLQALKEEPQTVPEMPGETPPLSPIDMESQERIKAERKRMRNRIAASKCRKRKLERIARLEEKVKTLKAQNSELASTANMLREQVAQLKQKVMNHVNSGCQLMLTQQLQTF
Chain of Transcription factor AP1 (P01100 whole entry): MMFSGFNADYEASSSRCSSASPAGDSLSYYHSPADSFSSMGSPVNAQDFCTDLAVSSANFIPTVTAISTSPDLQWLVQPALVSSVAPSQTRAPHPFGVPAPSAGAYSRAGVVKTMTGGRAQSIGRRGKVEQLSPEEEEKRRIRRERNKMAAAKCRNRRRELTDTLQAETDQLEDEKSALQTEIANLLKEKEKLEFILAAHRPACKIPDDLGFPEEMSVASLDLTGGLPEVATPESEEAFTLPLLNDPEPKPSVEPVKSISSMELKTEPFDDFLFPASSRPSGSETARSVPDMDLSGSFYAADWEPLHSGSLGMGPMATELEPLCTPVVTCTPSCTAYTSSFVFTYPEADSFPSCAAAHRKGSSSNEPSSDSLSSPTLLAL
Chain of Transcription factor Jun (P05412 whole entry): as the sequence (P05412 whole entry) above

The molecule `COc1cc(/C=C/C(=O)/C=C(O)/C=C/c2cc(OC)c(O)c([N+](=O)[O-])c2)cc([N+](=O)[O-])c1O` came in with an IC50 against Transcription factor Jun of 5.4 µM. Besides, the Ratio IC50 in the experiment filed under Homo sapiens [1] was 90. Turning to `O=C(O)CCc1cc(C(=O)c2ccc(OC3CCCC3)cc2O)ccc1OCc1ccc2c(O)noc2c1`, it took 200 µM to reach half-maximal inhibition on Transcription factor AP1 (IC50). Regarding `COC(=O)c1cnc2ccc(NC(=O)c3ccc4c(c3)c3cc(NC(=O)c5cc6cc(NC(=O)CCCN(C)C)ccc6o5)ccc3n4C)cc2c1`, the IC50 in experiment [2] stood at 0.15 µM; in experiment [3], 115 µM. Regarding `COc1ccc(CNC(=O)c2cc3nc(-c4cccs4)cc(C(F)(F)F)n3n2)cc1`, the IC50 at c-Myc/Max [4] came out at 30 µM; at Protein max, 72 µM. With `CCOC(=O)c1cnn(-c2ccccc2)c1NC(=O)c1cc2nc(-c3ccco3)cc(C(F)(F)Cl)n2n1`, the IC50 at c-Myc/Max [4] came out at 40 µM; on Protein max, 88 µM. The Ratio IC50 in the experiment listed under Homo sapiens [5] is above 2. In turn, `CC(C)c1ccc(/C=C2\SC(=S)N(CN3CCCCC3)C2=O)cc1` registered an IC50 in [6] of 29 µM. For the molecule `CC1(C)CC[C@]2(C(=O)O)CC[C@]3(C)C(=CC[C@@H]4[C@@]5(C)CC[C@H](O[C@@H]6O[C@H](C(=O)O)[C@@H](O)[C@H](O[C@@H]7OC[C@H](O)[C@H](O)[C@H]7O)[C@H]6O)C(C)(C)[C@@H]5CC[C@]43C)[C@@H]2C1`, the IC50 at Transcription factor Jun came out at 30 µM; against c-Myc/Max [7], 4000 µM. In addition, in the experiment filed under Homo sapiens [8], the Ratio IC50 was above 100. For `O=[N+]([O-])c1ccc(Nc2ccccc2-c2ccccc2)c2nonc12`, the Activity in [9] turned out to be 2.8 µM. Molecule `CC(=O)N[C@H]1CSSC[C@@H](C(N)=O)NC(=O)CNC(=O)[C@H](CC(=O)O)NC(=O)[C@H](C)NC(=O)[C@H](CC(C)C)NC(=O)[C@H](CC(=O)O)NC(=O)[C@H](CC(C)C)NC(=O)[C@H](CCC(N)=O)NC(=O)CNC1=O` (Ac-CGQLDLADGC-NH2; disulfide 1-10) returned an IC50 on Transcription factor AP1 of 8 µM. For the molecule `COC(=O)c1cc2cc(NC(=O)c3cc4cc(NC(=O)c5cc(NC(=O)OC(C)(C)C)cs5)ccc4[nH]3)ccc2[nH]1`, the IC50 came to 6.2 µM in experiment [2] and 31 µM in experiment [3]. `CCc1ccc(/C=C2\SC(=S)NC2=O)cc1` showed an IC50 with HL-60 of 49 µM. In [9], the Activity is 5.3 µM.

In the case of `CNC(=O)c1cc2c(cc1C(=O)NC[C@H](NS(=O)(=O)c1c(Cl)sc(Cl)c1Br)C(=O)OC(C)(C)C)CN(C(=O)CCC1CCN(C(=O)OC(C)(C)C)CC1)C2`, the IC50 on c-Myc/Max [10] was found to be 50 µM.
